This is an account of results in patent publication US20250059198A1, “BRM DEGRADING COMPOUNDS AND ASSOCIATED METHODS OF USE” (Arvinas Operations, Inc., priority 2021, published 2025).

This test addresses T1, BRM (Homo sapiens, UniProt P51531).
T1 construct: Western Blot Screen of BRM Degradation in SW1573 Cells; endogenous in cells; host or cells: SW1573 cells
The experiment in a line: BRM degradation (Dmax and DC50) in SW1573 cells, Western blot screen / In-Cell Western screen. The class given is cell-based. The note with it: overnight (18-20 hours) treatment; for Dmax: read-out: Dmax (%)** (% degraded). The essentials:
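Dmax and DC50 were derived from BRM levels normalised to an alpha-tubulin control, measured by chemiluminescent Western blotting of lysates or by PFA-fixed In-Cell Western on LI-COR Odyssey. SW1573 cells received compound overnight (18–20 h, 0.1% DMSO final).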
For orientation: Immunoblotting shows a protein as a band on a membrane.

T1 sequence (P51531 whole entry): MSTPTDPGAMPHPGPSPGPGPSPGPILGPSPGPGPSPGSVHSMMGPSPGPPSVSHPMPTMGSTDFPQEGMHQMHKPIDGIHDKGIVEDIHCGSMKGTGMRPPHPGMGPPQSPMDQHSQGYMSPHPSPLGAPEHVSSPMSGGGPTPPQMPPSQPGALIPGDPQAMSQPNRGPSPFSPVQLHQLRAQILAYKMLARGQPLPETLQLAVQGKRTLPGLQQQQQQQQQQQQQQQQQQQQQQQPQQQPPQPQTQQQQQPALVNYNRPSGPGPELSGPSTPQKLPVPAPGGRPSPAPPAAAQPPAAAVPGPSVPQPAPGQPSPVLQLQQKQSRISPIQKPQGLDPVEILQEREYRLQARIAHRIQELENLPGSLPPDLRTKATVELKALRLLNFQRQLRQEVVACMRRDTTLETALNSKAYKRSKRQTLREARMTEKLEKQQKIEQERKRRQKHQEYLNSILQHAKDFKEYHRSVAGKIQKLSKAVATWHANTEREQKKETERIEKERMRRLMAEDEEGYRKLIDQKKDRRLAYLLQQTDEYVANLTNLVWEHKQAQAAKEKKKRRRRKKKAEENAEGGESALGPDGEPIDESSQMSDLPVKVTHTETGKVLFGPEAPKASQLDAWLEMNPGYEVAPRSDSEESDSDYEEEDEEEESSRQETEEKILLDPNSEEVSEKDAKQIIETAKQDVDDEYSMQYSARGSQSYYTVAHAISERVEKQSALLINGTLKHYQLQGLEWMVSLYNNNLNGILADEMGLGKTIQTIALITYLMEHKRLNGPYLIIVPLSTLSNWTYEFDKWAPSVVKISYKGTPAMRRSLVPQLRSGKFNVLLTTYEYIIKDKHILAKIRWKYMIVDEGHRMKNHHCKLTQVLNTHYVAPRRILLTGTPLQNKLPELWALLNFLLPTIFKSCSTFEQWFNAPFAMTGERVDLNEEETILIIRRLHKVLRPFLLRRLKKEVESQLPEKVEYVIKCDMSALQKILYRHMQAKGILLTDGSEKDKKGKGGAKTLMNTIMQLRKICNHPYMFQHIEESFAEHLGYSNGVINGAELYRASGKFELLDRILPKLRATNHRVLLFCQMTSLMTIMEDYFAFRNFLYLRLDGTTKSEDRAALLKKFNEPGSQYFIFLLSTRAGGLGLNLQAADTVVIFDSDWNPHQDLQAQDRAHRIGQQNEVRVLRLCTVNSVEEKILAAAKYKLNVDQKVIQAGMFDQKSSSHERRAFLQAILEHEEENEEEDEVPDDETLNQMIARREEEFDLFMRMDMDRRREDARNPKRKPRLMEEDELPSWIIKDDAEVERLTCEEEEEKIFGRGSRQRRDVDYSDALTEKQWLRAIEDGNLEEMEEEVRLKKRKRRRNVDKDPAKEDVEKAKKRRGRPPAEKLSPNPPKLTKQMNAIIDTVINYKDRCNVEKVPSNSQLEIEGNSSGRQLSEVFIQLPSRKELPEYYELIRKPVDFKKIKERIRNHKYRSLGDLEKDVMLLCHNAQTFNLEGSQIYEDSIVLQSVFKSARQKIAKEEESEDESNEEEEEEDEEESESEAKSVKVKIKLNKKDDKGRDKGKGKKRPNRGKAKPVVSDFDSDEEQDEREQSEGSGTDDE

For `Cc1ncsc1-c1ccc([C@H](C)NC(=O)[C@@H]2C[C@@H](O)CN2C(=O)[C@@H](c2cc(N3CCC(CN4CCC5(CC4)CC(N4CCC(C(=O)N6C7CCC6CN(c6cc(-c8ccccc8O)nnc6N)C7)CC4)C5)CC3)no2)C(C)C)cc1` [Compound 58, (2S,4R)-1-[(2R)-2-[3-(4-{[2-(4-{3-[3-amino-6-(2-hydroxyphenyl)pyridazin-4-yl]-3,8-diazabicyclo[3.2.1]octane-8-carbonyl}piperidin-1-yl)-7-azaspiro[3.5]nonan-7-yl]methyl}piperidin-1-yl)-1,2-oxazol-5-yl]-3-methylbutanoyl]-4-hydroxy-N-[(1S)-1-[4-(4-methyl-1,3-thiazol-5-yl)phenyl]ethyl]pyrrolidine-2-carboxamide], the DC50 (in general, the concentration at which degradation of the target reaches its halfway point) was below 2.5 nM and the maximal degradation (Dmax) (usually the greatest extent of degradation seen) is above 75%.
`Cc1ncsc1-c1ccc([C@H](C)NC(=O)[C@@H]2C[C@@H](O)CN2C(=O)[C@@H](c2cc(N3CCC(CN4CC[C@@H](Oc5cc(N6C7CCC6CN(c6cc(-c8ccccc8O)nnc6N)C7)ccn5)[C@H](F)C4)CC3)no2)C(C)C)cc1` [Compound 59, (2S,4R)-1-[(2R)-2-[3-(4-{[(3R,4R)-4-[(4-{3-[3-amino-6-(2-hydroxyphenyl)pyridazin-4-yl]-3,8-diazabicyclo[3.2.1]octan-8-yl}pyridin-2-yl)oxy]-3-fluoropiperidin-1-yl]methyl}piperidin-1-yl)-1,2-oxazol-5-yl]-3-methylbutanoyl]-4-hydroxy-N-[(1S)-1-[4-(4-methyl-1,3-thiazol-5-yl)phenyl]ethyl]pyrrolidine-2-carboxamide]: the 50% degradation concentration (DC50) fell in the range of 10 to 30 nM and the Dmax was above 75%.
For `Cc1ncsc1-c1ccc([C@H](C)NC(=O)[C@@H]2C[C@@H](O)CN2C(=O)[C@@H](c2cc(N3CCC(CN4CC[C@H](Oc5cc(N6C7CCC6CN(c6cc(-c8ccccc8O)nnc6N)C7)ccn5)[C@@H](F)C4)CC3)no2)C(C)C)cc1` [Compound 60, (2S,4R)-1-[(2R)-2-[3-(4-{[(3S,4S)-4-[(4-{3-[3-amino-6-(2-hydroxyphenyl)pyridazin-4-yl]-3,8-diazabicyclo[3.2.1]octan-8-yl}pyridin-2-yl)oxy]-3-fluoropiperidin-1-yl]methyl}piperidin-1-yl)-1,2-oxazol-5-yl]-3-methylbutanoyl]-4-hydroxy-N-[(1S)-1-[4-(4-methyl-1,3-thiazol-5-yl)phenyl]ethyl]pyrrolidine-2-carboxamide], in that order: below 2.5 nM and above 75%.
Taken in the same sequence, the figures for `Cc1ncsc1-c1ccc([C@H](C)NC(=O)[C@@H]2C[C@@H](O)CN2C(=O)[C@@H](c2cc(N3CCC(CN4CCC5(CC4)CC(N4CCC[C@](O)(CN6C7CCC6CN(c6cc(-c8ccccc8O)nnc6N)C7)C4)C5)CC3)no2)C(C)C)cc1` [Compound 61, (2S,4R)-1-[(2R)-2-{3-[4-({2-[(3R)-3-({3-[3-amino-6-(2-hydroxyphenyl)pyridazin-4-yl]-3,8-diazabicyclo[3.2.1]octan-8-yl}methyl)-3-hydroxypiperidin-1-yl]-7-azaspiro[3.5]nonan-7-yl}methyl)piperidin-1-yl]-1,2-oxazol-5-yl}-3-methylbutanoyl]-4-hydroxy-N-[(1S)-1-[4-(4-methyl-1,3-thiazol-5-yl)phenyl]ethyl]pyrrolidine-2-carboxamide] were below 2.5 nM and above 75%.
Taken in the same sequence, the figures for `Cc1ncsc1-c1ccc([C@H](C)NC(=O)[C@@H]2C[C@@H](O)CN2C(=O)[C@@H](c2cc(N3CCC(CN4CCC5(CC4)CC(N4CCO[C@@H](C(=O)N6C7CCC6CN(c6cc(-c8ccccc8O)nnc6N)C7)C4)C5)CC3)no2)C(C)C)cc1` [Compound 62, (2S,4R)-1-[(2R)-2-{3-[4-({2-[(2R)-2-{3-[3-amino-6-(2-hydroxyphenyl)pyridazin-4-yl]-3,8-diazabicyclo[3.2.1]octane-8-carbonyl}morpholin-4-yl]-7-azaspiro[3.5]nonan-7-yl}methyl)piperidin-1-yl]-1,2-oxazol-5-yl}-3-methylbutanoyl]-4-hydroxy-N-[(1S)-1-[4-(4-methyl-1,3-thiazol-5-yl)phenyl]ethyl]pyrrolidine-2-carboxamide] were below 2.5 nM and above 75%.
Take `Cc1ncsc1-c1ccc([C@H](C)NC(=O)[C@@H]2C[C@@H](O)CN2C(=O)[C@@H](c2cc(N3CCC(CN4CCC5(CC4)CC(n4cc(C#Cc6cc(-c7ccccc7O)nnc6N)cn4)C5)CC3)no2)C(C)C)cc1` [Compound 63, (2S,4R)-1-[(2R)-2-[3-(4-{[2-(4-{2-[3-amino-6-(2-hydroxyphenyl)pyridazin-4-yl]ethynyl}-1H-pyrazol-1-yl)-7-azaspiro[3.5]nonan-7-yl]methyl}piperidin-1-yl)-1,2-oxazol-5-yl]-3-methylbutanoyl]-4-hydroxy-N-[(1S)-1-[4-(4-methyl-1,3-thiazol-5-yl)phenyl]ethyl]pyrrolidine-2-carboxamide]: the 50% degradation concentration (DC50) is below 2.5 nM and the Dmax was above 75%.
Taken in the same sequence, the figures for `Cc1ncsc1-c1ccc([C@H](C)NC(=O)[C@@H]2C[C@@H](O)CN2C(=O)[C@@H](c2cc(OCCN3CCC(OC(=O)N4CCN(c5cc(-c6ccccc6O)nnc5N)CC4)CC3)no2)C(C)C)cc1` [Compound 64, 1-[2-({5-[(2R)-1-[(2S,4R)-4-hydroxy-2-{[(1S)-1-[4-(4-methyl-1,3-thiazol-5-yl)phenyl]ethyl]carbamoyl}pyrrolidin-1-yl]-3-methyl-1-oxobutan-2-yl]-1,2-oxazol-3-yl}oxy)ethyl]piperidin-4-yl 4-[3-amino-6-(2-hydroxyphenyl)pyridazin-4-yl]piperazine-1-carboxylate] were 2.5 to 10 nM and above 75%.
For `Cc1ncsc1-c1ccc([C@H](C)NC(=O)[C@@H]2C[C@@H](O)CN2C(=O)[C@@H](c2cc(N3CCC(CN4CCC(OC(=O)N5CCN(c6cc(-c7ccccc7O)nnc6N)CC5)CC4)CC3)no2)C(C)C)cc1` [Compound 65, 1-[(1-{5-[(2R)-1-[(2S,4R)-4-hydroxy-2-{[(1S)-1-[4-(4-methyl-1,3-thiazol-5-yl)phenyl]ethyl]carbamoyl}pyrrolidin-1-yl]-3-methyl-1-oxobutan-2-yl]-1,2-oxazol-3-yl}piperidin-4-yl)methyl]piperidin-4-yl 4-[3-amino-6-(2-hydroxyphenyl)pyridazin-4-yl]piperazine-1-carboxylate], in that order: below 2.5 nM and above 75%.
For `CC(C)[C@@H](C(=O)N1C[C@H](O)C[C@H]1C(=O)N[C@@H](C)c1ccc(C#N)cc1)c1cc(OCCN2CCN(CCOc3cc(N4C5CCC4CN(c4cc(-c6ccccc6O)nnc4N)C5)ccn3)CC2)no1` [Compound 66, (2S,4R)-1-[(2R)-2-{3-[2-(4-{2-[(4-{3-[3-amino-6-(2-hydroxyphenyl)pyridazin-4-yl]-3,8-diazabicyclo[3.2.1]octan-8-yl}pyridin-2-yl)oxy]ethyl}piperazin-1-yl)ethoxy]-1,2-oxazol-5-yl}-3-methylbutanoyl]-N-[(1S)-1-(4-cyanophenyl)ethyl]-4-hydroxypyrrolidine-2-carboxamide], in that order: 2.5 to 10 nM and above 75%.
For the compound `Cc1ncsc1-c1ccc([C@H](C)NC(=O)[C@@H]2C[C@@H](O)CN2C(=O)[C@H](c2cc(O[C@H]3C[C@H](CN4CCC(O[C@H]5C[C@H](N6CCOC7(CCN(c8cc(-c9ccccc9O)nnc8N)CC7)C6)C5)CC4)C3)no2)C(C)C)cc1` [Compound 67, (2S,4R)-4-hydroxy-N-[(1S)-1-[4-(4-methyl-1,3-thiazol-5-yl)phenyl]ethyl]-1-[(2S)-3-methyl-2-{3-[(1r,3r)-3-({4-[(1r,3r)-3-{9-[3-amino-6-(2-hydroxyphenyl)pyridazin-4-yl]-1-oxa-4,9-diazaspiro[5.5]undecan-4-yl}cyclobutoxy]piperidin-1-yl}methyl)cyclobutoxy]-1,2-oxazol-5-yl}butanoyl]pyrrolidine-2-carboxamide], the DC50 was 10 to 30 nM and the maximal degradation (Dmax) is above 75%.
For `Cc1ncsc1-c1ccc([C@H](C)NC(=O)[C@@H]2C[C@@H](O)CN2C(=O)[C@@H](c2cc(O[C@H]3C[C@H](CN4CCC(O[C@H]5C[C@H](N6CCOC7(CCN(c8cc(-c9ccccc9O)nnc8N)CC7)C6)C5)CC4)C3)no2)C(C)C)cc1` [Compound 68, (2S,4R)-4-hydroxy-N-[(1S)-1-[4-(4-methyl-1,3-thiazol-5-yl)phenyl]ethyl]-1-[(2R)-3-methyl-2-{3-[(1r,3r)-3-({4-[(1r,3r)-3-{9-[3-amino-6-(2-hydroxyphenyl)pyridazin-4-yl]-1-oxa-4,9-diazaspiro[5.5]undecan-4-yl}cyclobutoxy]piperidin-1-yl}methyl)cyclobutoxy]-1,2-oxazol-5-yl}butanoyl]pyrrolidine-2-carboxamide], in that order: below 2.5 nM and above 75%.
On to `Cc1ncsc1-c1ccc([C@H](C)NC(=O)[C@@H]2C[C@@H](O)CN2C(=O)[C@@H](c2cc(N3CCC(CN4CCC(O[C@H]5C[C@H](N6CCC(C(C)n7cc(/C=C/c8cc(-c9ccccc9O)nnc8N)cn7)CC6)C5)CC4)CC3)no2)C(C)C)cc1` (stereo partly drawn) [Compound 69, (2S,4R)-4-hydroxy-N-[(1S)-1-[4-(4-methyl-1,3-thiazol-5-yl)phenyl]ethyl]-1-[(2R)-3-methyl-2-{3-[4-({4-[(1r,3r)-3-[4-(1-{4-[(1E)-2-[3-amino-6-(2-hydroxyphenyl)pyridazin-4-yl]ethenyl]-1H-pyrazol-1-yl}ethyl)piperidin-1-yl]cyclobutoxy]piperidin-1-yl}methyl)piperidin-1-yl]-1,2-oxazol-5-yl}butanoyl]pyrrolidine-2-carboxamide], for which the DC50 was below 2.5 nM and the Dmax is above 75%.
